From PubChem BioAssay (NCI)
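Tested at 5 concentrations; 48 h exposure; 96-well plates; endpoints linearly interpolated, else capped at highest concentration. TGI: total growth inhibition.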

Key:
Assay in all cases: DTP human tumour cell line panel, 48 h
786-0 renal = system: 786-0 renal
A498 renal = system: A498 renal
A549 NSCLC = system: A549 NSCLC
ACHN renal = system: ACHN renal
BT-549 breast = system: BT-549 breast
CAKI-1 renal = system: CAKI-1 renal
COLO 205 colon = system: COLO 205 colon
DU-145 prostate = system: DU-145 prostate
EKVX NSCLC = system: EKVX NSCLC
HCC-2998 colon = system: HCC-2998 colon
HCT-116 colon = system: HCT-116 colon
HCT-15 colon = system: HCT-15 colon
HL-60(TB) leukemia = system: HL-60(TB) leukemia
HOP-62 NSCLC = system: HOP-62 NSCLC
HOP-92 NSCLC = system: HOP-92 NSCLC
HS 578T breast = system: HS 578T breast
HT29 colon = system: HT29 colon
IGROV1 ovarian = system: IGROV1 ovarian
K-562 leukemia = system: K-562 leukemia
KM12 colon = system: KM12 colon
LOX IMVI melanoma = system: LOX IMVI melanoma
M14 melanoma = system: M14 melanoma
MALME-3M melanoma = system: MALME-3M melanoma
MCF7 breast = system: MCF7 breast
MDA-MB-231 breast = system: MDA-MB-231 breast
MDA-MB-435 = system: MDA-MB-435
NCI-H226 lung = system: NCI-H226 lung
NCI-H23 lung = system: NCI-H23 lung
NCI-H460 lung = system: NCI-H460 lung
NCI-H522 lung = system: NCI-H522 lung
NCI/ADR-RES ovarian = system: NCI/ADR-RES ovarian
OVCAR-3 ovarian = system: OVCAR-3 ovarian
OVCAR-5 ovarian = system: OVCAR-5 ovarian
OVCAR-8 ovarian = system: OVCAR-8 ovarian
PC-3 prostate = system: PC-3 prostate
RPMI-8226 leukemia = system: RPMI-8226 leukemia
RXF 393 renal = system: RXF 393 renal
SF-268 CNS = system: SF-268 CNS
SF-295 CNS = system: SF-295 CNS
SF-539 CNS = system: SF-539 CNS
SK-MEL-2 melanoma = system: SK-MEL-2 melanoma
SK-MEL-28 melanoma = system: SK-MEL-28 melanoma
SK-MEL-5 melanoma = system: SK-MEL-5 melanoma
SK-OV-3 ovarian = system: SK-OV-3 ovarian
SN12C renal = system: SN12C renal
SNB-19 CNS = system: SNB-19 CNS
SR leukemia = system: SR leukemia
SW-620 colon = system: SW-620 colon
T-47D breast = system: T-47D breast
TK-10 renal = system: TK-10 renal
U251 CNS = system: U251 CNS
UACC-257 melanoma = system: UACC-257 melanoma
UACC-62 melanoma = system: UACC-62 melanoma
UO-31 renal = system: UO-31 renal
CCRF-CEM leukemia = system: CCRF-CEM leukemia
MOLT-4 leukemia = system: MOLT-4 leukemia
OVCAR-4 ovarian = system: OVCAR-4 ovarian
SNB-75 CNS = system: SNB-75 CNS

Measured: TGI

CCCCCCN(CCCCCC)CCC(=O)c1ccc2cc(Br)c3ccccc3c2c1
52.9 µM: KM12 colon
60.5 µM: T-47D breast
64.3 µM: RXF 393 renal
74.5 µM: UACC-62 melanoma
67.4 µM: MDA-MB-231 breast
87.1 µM: NCI-H522 lung
56.2 µM: HL-60(TB) leukemia
14.3 µM: SR leukemia
51.6 µM: BT-549 breast
74.3 µM: MDA-MB-435
92.9 µM: SK-MEL-2 melanoma
54.9 µM: MCF7 breast
98.3 µM: LOX IMVI melanoma
52.5 µM: SF-539 CNS
80.4 µM: COLO 205 colon
64.9 µM: HOP-92 NSCLC
65.2 µM: TK-10 renal
96.1 µM: SK-MEL-5 melanoma
not listed: CCRF-CEM leukemia | MOLT-4 leukemia | OVCAR-4 ovarian | SNB-75 CNS
> 100 µM: all other assays above

Cc1cc(N)c2ccccc2[n+]1CCCCCCCCCCNc1cc(C)[n+](CCCCCCCCCC[n+]2c(C)cc(N)c3ccccc32)c2ccccc12
33.7 µM: EKVX NSCLC
29 µM: HT29 colon
1.52 µM: RPMI-8226 leukemia
> 100 µM: CAKI-1 renal | COLO 205 colon | MCF7 breast

ClCc1nc2ccccc2[nH]1
not listed: SK-OV-3 ovarian
> 100 µM: all other assays above
